From patent publication US9205068B2 (priority 2008, dated 2015)
Values joined by “and” are separate entries in the source; they are usually repeats but may differ in a detail not shown here. Equal values may be shown once.

Key:
[1] = test system: CTA1 dislocation from the ER to the cytosol of HeLa cells; type: cell-based
[2] = test system: CT intoxication of CHO cells; type: cell-based
[3] = biological target: interaction between GRP94 and CTA1 (Homo sapiens, UniProt P14625); type: binding
[4] = in vivo, po; cited from earlier work
[5] = biological target: catalytic subunit of pertussis toxin (PTS1) (Bordetella pertussis, UniProt P04977); type: binding, B. pertussis; details: PTS1, 100 μM PBA
Shiga toxin = type: cell-based
CT = details: in vivo
[6] = biological target: catalytic A1 polypeptide of cholera toxin (CTA1) (Vibrio cholerae serotype O1, UniProt P01555); type: binding
[7] = biological target: cell-binding B subunit of CT (Vibrio cholerae serotype O1, UniProt P01556)
[8] = test system: CTA1 secretion from intoxicated HeLa cells; type: cell-based
20S proteasome = type: biochemical
[9] = test system: forskolin-stimulated adenylate cyclase activity; type: cell-based
His6-tagged CTA1 = His6-tagged CTA1 (Vibrio cholerae serotype O1, UniProt P01555); type: binding
[10] = cited from earlier work
thermolysin = thermolysin (Bacillus thermoproteolyticus, UniProt P00800); type: biochemical
thermolysin, sequence (P00800 233-548): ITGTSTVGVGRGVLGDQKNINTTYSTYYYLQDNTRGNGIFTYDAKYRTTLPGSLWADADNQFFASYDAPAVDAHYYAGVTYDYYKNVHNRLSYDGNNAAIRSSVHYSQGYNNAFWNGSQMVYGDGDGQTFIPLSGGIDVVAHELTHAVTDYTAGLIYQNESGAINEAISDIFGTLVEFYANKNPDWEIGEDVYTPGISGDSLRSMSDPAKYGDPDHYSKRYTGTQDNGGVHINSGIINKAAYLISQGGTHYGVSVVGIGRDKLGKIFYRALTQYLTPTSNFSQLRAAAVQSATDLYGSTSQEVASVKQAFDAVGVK

catalytic A1 polypeptide of cholera toxin (CTA1), sequence (P01555 19-212 limits assumed): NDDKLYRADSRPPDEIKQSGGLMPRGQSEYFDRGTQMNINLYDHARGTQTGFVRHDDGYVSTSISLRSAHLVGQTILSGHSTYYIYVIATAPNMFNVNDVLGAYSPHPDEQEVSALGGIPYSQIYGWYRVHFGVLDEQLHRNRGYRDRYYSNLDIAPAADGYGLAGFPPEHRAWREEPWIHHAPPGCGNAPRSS
His6-tagged CTA1, sequence (P01555 19-212 limits assumed): as above
catalytic subunit of pertussis toxin (PTS1), sequence (P04977 35-269 limits assumed): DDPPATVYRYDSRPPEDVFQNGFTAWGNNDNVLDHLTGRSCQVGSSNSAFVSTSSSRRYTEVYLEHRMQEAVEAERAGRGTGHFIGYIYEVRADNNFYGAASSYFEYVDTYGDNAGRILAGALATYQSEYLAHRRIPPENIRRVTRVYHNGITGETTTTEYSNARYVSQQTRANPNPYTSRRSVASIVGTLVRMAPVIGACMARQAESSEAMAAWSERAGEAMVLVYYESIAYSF
cell-binding B subunit of CT, sequence (P01556 22-124 limits assumed): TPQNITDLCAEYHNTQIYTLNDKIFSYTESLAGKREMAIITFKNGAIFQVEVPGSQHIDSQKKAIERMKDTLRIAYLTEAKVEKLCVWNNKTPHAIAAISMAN
interaction between GRP94 and CTA1, sequence (P14625 22-803 limits assumed): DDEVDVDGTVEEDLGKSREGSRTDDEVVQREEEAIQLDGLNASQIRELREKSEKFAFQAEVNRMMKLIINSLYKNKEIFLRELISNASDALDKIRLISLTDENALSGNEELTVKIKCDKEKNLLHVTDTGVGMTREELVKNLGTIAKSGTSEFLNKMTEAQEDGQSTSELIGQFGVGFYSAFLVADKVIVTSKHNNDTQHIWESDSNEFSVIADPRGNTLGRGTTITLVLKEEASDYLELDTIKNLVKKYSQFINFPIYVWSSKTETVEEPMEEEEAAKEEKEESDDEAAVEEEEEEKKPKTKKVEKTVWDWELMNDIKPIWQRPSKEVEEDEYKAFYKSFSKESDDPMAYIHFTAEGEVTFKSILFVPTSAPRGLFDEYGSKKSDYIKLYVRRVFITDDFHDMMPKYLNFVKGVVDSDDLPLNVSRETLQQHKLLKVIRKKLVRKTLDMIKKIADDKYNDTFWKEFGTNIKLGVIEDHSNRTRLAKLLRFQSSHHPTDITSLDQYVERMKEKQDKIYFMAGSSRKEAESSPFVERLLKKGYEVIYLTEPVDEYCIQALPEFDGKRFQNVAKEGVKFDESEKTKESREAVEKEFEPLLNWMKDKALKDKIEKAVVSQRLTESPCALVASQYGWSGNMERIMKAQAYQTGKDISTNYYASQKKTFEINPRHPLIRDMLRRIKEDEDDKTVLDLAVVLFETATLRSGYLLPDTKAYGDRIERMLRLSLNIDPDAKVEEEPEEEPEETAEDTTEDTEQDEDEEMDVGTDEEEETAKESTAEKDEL

N-ethylcarboxamidoadenosine [NECA]
cytosolic CTA1 by Western blot [1]: unaffected by NECA treatment | cytosolic pool of CTA1 by SPR [1]: response comparable to the response from cells intoxicated in the absence of drug treatment | CT intoxication (cAMP response) [2]: same response to CT as the untreated cells | effect on GRP94 binding to CTA1 [3]: blocked by both GA and NECA

O=C([O-])CCCc1ccccc1.[Na+] [PBA, sodium 4-phenylbutyrate]
cytosolic pool of CTA1 by SPR [1]: less CTA1 was found in the cytosol | CT activity against cultured cells [2]: blocks CT activity against cultured cells in a dose-dependent manner | concentration effective against CT intoxication of cultured cells [2]: 10 to 100 µM | PBA serum levels [4]: 600-1,700 uM | transition temperature Far UV [5]: 33.0 °C | transition temperature Near UV [5]: 36.0 °C | protection against Shiga toxin (Shiga toxin): do not protect cultured cells against Shiga toxin | CT activity in the ileal loop test system (CT): blocks CT activity in the ileal loop test system | Melting temperature (Tm) Fluorescence [6]: 37.5 °C and 38.5 °C and 41.0 °C | Melting temperature (Tm) Near UV [6]: 33.0 °C and 35.0 °C | binding to cell-binding B subunit of CT [7]: does not bind

brefeldin A [BfA]
cytosolic pool of CTA1 by SPR [1]: No signal | CTA1 in the medium by SPR [8]: could not detect an appreciable amount of CTA1 in the medium

OCC(O)CO [glycerol]
cytosolic pool of CTA1 by SPR [1]: failed to generate a positive cytosolic signal for CTA1 | cytosolic pool of CTA1 by SPR, time course [1]: could not be detected | reduction in cytosolic CTA1 [1]: 3 fold and 5 fold | total cellular pool of CTA1 present in the cytosolic fraction [1]: 7±4% | CT concentration for 50% maximal response [2]: 35 ng of CT/ml | CT intoxication (cAMP response) [2]: resistant to CT | a-casein degradation by the 20S proteasome (20S proteasome): did not inhibit a-casein degradation by the 20S proteasome | cAMP relative to cells treated with forskolin alone [9]: 105% | CTA1 secondary structure Tm (His6-tagged CTA1): 39±0.5 °C | CTA1 tertiary structure transition temperature (Tm) (His6-tagged CTA1): 39.5±1 °C | initial secondary structure retained at 37° C. (His6-tagged CTA1): ~60% | initial tertiary structure retained at 37° C. (His6-tagged CTA1): 58% | t1/2 of equilibration across the plasma membrane [10]: 5 min | thermolysin-mediated proteolysis of a-casein (thermolysin): did not prevent the thermolysin-mediated proteolysis of a-casein | CTA1 secreted into medium versus untreated cells [8]: twice as much CTA1 as the untreated control cells
